Common to all, as to assay type: cell-based
The target in test [1] is T1, CaV3.2 (Homo sapiens, UniProt O95180).
T1 construct: expressed in transfected cells; host or cells: unnamed doxycycline-inducible cell line
In words: High-throughput CaV3.2/Kir2.3 T-type FLIPR fluorescent assay. To be noted: Fluo-4 FLIPR, closed or inactivated state not stated. The gist of the method: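 Doxycycline-induced cells loaded with Fluo-4, preincubated 20 min at 29°C with compound in 2 mM KCl (closed-state) or 7.6 mM KCl (inactivated-state) buffer, pH 7.4. Calcium entry triggered by 12 mM or 14.5 mM KCl respectively; fluorescence read 3 min by FLIPR, IC50 from logistic fit.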

For test [2], the target named is T2, CaV2.2 (Homo sapiens, UniProt Q00975).
T2 construct: expressed in transfected cells; host or cells: unnamed doxycycline-inducible cell line
Nature of the test: High-throughput CaV2.2/Kir2.3 FLIPR fluorescent assay. To be noted: Fluo-4 FLIPR, closed or inactivated state not stated, read-out: FLIPR data CaV2.2. In a few lines:
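IC50 was derived by logistic fitting of the FLIPR Fluo-4 signal recorded over 3 min after a 130 mM KCl stimulus. Before stimulation, cells (channel expression induced with doxycycline, 29 °C on assay day) were kept in pH 7.4 buffer with 2 mM KCl for the closed-state format or 12.5 mM KCl for the inactivated-state format.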

In test [3] the target is T3, CaV3.1 (Homo sapiens, UniProt O43497).
T3 construct: expressed in transfected cells; host or cells: unnamed doxycycline-inducible cell line
Nature of the test: High-throughput CaV3.1 T-type FLIPR fluorescent assay. To be noted: Fluo-4 FLIPR. The gist of the method: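 Doxycycline-induced CaV3.1 cells were loaded with Fluo-4 at 29 °C and pre-incubated with compound for 20 min at 29 °C in low-Ca2+ buffer (0.001 mM CaCl2, pH 7.2). Calcium entry was triggered by buffer containing 6 mM CaCl2, and Fluo-4 fluorescence was recorded on FLIPR for 3 min. IC50 came from logistic fits.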

Read-outs that look alike come from different tables or passages of the source.

For 23 molecules, IC50 results are on record in patent US20140113898A1, “BISARYLSULFONE AND DIALKYLARYLSULFONE COMPOUNDS AS CALCIUM CHANNEL BLOCKERS” (Zalicus Pharmaceuticals Ltd., priority 2010, published 2014).

T2 sequence (Q00975 whole entry): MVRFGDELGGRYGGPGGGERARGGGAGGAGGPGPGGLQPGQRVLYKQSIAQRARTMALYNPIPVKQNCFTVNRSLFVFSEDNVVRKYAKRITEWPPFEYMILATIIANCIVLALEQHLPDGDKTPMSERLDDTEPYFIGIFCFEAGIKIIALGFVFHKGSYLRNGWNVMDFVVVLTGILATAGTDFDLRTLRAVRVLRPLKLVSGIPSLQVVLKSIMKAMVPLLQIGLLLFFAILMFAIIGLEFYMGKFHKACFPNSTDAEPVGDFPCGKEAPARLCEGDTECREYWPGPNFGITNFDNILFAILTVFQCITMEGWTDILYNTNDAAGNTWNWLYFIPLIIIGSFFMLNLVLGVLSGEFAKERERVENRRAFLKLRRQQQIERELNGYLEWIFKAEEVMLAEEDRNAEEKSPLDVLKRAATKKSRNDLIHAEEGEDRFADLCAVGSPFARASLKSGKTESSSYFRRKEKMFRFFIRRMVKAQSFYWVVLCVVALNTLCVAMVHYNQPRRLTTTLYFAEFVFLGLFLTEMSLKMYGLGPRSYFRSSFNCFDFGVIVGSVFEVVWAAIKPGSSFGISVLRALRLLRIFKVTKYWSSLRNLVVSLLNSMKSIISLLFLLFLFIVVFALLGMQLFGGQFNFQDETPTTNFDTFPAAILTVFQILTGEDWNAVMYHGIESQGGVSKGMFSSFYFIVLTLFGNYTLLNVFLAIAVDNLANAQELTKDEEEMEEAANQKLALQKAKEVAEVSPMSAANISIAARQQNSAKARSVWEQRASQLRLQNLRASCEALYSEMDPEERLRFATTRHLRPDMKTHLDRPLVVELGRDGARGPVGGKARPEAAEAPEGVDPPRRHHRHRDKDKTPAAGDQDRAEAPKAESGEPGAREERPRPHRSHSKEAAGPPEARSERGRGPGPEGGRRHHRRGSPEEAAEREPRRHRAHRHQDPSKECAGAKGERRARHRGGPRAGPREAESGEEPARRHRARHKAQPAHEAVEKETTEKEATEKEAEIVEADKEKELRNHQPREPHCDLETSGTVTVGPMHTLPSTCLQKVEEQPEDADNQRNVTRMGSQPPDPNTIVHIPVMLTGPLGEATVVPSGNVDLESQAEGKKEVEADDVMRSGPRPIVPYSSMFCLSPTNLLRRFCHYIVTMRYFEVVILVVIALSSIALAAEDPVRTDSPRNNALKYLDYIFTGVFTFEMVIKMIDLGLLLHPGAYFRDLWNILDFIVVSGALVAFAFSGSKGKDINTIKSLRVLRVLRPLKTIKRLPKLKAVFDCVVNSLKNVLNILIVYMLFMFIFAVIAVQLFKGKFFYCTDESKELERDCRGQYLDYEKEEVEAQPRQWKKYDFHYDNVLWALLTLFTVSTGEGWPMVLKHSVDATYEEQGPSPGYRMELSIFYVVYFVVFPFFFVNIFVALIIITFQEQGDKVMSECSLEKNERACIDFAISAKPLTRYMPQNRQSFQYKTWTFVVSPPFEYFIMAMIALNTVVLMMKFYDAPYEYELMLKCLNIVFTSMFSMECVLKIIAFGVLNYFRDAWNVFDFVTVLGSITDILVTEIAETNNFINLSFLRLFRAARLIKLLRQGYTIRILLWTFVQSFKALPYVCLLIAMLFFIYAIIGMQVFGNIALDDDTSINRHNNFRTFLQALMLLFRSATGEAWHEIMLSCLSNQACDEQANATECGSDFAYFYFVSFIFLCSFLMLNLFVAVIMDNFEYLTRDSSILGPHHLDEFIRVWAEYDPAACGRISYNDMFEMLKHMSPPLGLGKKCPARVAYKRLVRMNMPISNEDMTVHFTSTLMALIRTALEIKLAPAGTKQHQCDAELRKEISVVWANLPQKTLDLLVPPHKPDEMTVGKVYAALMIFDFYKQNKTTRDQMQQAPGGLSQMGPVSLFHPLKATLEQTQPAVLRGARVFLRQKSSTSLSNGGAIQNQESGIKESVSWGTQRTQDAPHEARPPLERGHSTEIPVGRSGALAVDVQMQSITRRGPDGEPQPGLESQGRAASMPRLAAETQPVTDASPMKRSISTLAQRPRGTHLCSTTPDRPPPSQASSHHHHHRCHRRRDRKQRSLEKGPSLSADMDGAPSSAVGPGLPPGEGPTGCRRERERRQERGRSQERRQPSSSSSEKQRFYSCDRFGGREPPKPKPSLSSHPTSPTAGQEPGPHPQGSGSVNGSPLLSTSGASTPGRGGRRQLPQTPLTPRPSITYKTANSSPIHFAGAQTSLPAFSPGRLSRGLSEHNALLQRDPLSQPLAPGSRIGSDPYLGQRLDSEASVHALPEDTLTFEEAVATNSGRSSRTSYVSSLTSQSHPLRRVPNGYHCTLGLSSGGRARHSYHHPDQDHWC
T2 sequence (P54284 whole entry partner): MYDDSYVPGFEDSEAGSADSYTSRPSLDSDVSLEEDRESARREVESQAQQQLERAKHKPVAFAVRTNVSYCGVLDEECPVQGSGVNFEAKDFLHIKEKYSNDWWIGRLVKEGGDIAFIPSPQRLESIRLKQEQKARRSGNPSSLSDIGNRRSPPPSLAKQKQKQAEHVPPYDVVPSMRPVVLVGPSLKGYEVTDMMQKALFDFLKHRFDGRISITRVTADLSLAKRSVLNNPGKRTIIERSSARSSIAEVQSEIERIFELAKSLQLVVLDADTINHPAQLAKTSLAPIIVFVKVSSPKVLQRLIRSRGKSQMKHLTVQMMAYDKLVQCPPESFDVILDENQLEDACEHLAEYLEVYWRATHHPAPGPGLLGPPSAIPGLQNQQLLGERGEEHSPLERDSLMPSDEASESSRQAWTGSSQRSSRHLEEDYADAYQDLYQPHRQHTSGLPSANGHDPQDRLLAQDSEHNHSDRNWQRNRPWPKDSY
T2 sequence (P54289 25-946 partner limits assumed): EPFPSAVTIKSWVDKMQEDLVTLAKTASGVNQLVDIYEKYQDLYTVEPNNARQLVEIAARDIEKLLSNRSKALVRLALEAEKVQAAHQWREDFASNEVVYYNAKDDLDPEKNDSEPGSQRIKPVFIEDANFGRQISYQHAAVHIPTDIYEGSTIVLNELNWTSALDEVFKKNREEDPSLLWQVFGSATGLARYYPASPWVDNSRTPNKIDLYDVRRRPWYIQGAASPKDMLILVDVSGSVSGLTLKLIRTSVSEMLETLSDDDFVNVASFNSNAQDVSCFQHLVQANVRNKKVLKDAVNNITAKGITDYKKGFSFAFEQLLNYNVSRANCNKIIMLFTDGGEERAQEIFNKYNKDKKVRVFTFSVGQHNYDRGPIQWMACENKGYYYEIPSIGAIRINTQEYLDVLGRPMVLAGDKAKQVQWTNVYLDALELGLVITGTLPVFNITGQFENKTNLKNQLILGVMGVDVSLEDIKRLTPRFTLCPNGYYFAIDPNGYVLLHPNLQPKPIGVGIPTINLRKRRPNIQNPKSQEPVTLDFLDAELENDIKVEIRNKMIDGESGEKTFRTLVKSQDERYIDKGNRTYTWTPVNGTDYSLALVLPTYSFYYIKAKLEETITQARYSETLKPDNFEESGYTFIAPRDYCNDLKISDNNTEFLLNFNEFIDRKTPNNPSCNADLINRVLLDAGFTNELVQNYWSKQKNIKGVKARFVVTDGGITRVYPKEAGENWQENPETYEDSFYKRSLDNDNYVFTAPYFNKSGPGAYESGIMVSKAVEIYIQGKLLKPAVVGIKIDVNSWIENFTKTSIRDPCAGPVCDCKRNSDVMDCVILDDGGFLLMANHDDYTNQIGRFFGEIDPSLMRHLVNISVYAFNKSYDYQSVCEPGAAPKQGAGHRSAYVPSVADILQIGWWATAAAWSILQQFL
T2 sequence (P54289 947-1103 partner limits assumed): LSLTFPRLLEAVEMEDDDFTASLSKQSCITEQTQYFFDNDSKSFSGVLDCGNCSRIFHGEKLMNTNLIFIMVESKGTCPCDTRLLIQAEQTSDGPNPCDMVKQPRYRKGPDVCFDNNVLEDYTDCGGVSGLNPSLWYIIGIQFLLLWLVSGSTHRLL

Consider `O=C(NCc1ccccc1S(=O)(=O)c1cccc(C(F)(F)F)c1)[C@@H]1C[C@@H](C2CCCCC2)CN1` [Compound 75, (2S,4S)-4-cyclohexyl-N-(2-((3-(trifluoromethyl)phenyl)sulfonyl)benzyl)pyrrolidine-2-carboxamide], for which the values for the IC50 in test [1] (Table 4), in test [2] (Table 4) and in test [3] (Table 4) were 1590 nM, 1060 nM and 5470 nM, respectively.

For `N[C@@H]1CCCC[C@H]1C(=O)NCc1ccc(S(=O)(=O)c2cccc(C(F)(F)F)c2)cc1` [Compound 81, (1R,2R)-2-amino-N-(4-((3-(trifluoromethyl)phenyl)sulfonyl)benzyl)cyclohexanecarboxamide], the IC50 in test [1] (Table 4) worked out at 4560 nM; in test [2] (Table 4) it was 680 nM; in test [3] (Table 4) it was 8240 nM.

On to `CC(C)(C(=O)NCc1ccc(S(=O)(=O)c2cccc(C(F)(F)F)c2)cn1)S(=O)(=O)c1cccc(C(F)(F)F)c1` [Compound 87, 2-methyl-2-((3-(trifluoromethyl)phenyl)sulfonyl)-N-((5-((3-(trifluoromethyl)phenyl)sulfonyl)pyridin-2-yl)methyl)propanamide], for which the IC50 in test [1] (Table 4) turned out to be 1260 nM; in test [2] (Table 4), 170 nM; in test [3] (Table 4) it was 1690 nM.

As for `O=C(NCc1ccc(S(=O)(=O)c2cccc(C(F)(F)F)c2)cn1)c1ccc(Cl)c(F)c1` [Compound 88, 4-chloro-3-fluoro-N-((5-((3-(trifluoromethyl)phenyl)sulfonyl)pyridin-2-yl)methyl)benzamide], the figures for the IC50 in test [1] (Table 4), in test [2] (Table 4) and in test [3] (Table 4) were 810 nM, 810 nM and 900 nM, respectively.

Take `O=C(NCc1ccc(S(=O)(=O)c2cccc(C(F)(F)F)c2)cn1)c1cc(F)cc(Cl)c1` [Compound 89, 3-chloro-5-fluoro-N-((5-((3-(trifluoromethyl)phenyl)sulfonyl)pyridin-2-yl)methyl)benzamide]: the results for the IC50 in test [1] (Table 4), in test [2] (Table 4) and in test [3] (Table 4) were 1740 nM, 970 nM and 1580 nM, respectively.

For the molecule `O=C(NCc1ccc(S(=O)(=O)c2cccc(C(F)(F)F)c2)cn1)c1ccc(C(F)(F)F)nc1` [Compound 90, 6-(trifluoromethyl)-N-((5-((3-(trifluoromethyl)phenyl)sulfonyl)pyridin-2-yl)methyl)nicotinamide], the results for the IC50 in test [1] (Table 4), in test [2] (Table 4) and in test [3] (Table 4) were 2070 nM, 610 nM and 900 nM, respectively.

On to `O=C(NCc1ccc(S(=O)(=O)c2cccc(C(F)(F)F)c2)cn1)c1ccc(C(F)(F)F)cn1` [Compound 91, 5-(trifluoromethyl)-N-((5-((3-(trifluoromethyl)phenyl)sulfonyl)pyridin-2-yl)methyl)picolinamide], for which the figures for the IC50 in test [1] (Table 4), in test [2] (Table 4) and in test [3] (Table 4) were 1290 nM, 840 nM and 1850 nM, respectively.

In the case of `CS(=O)(=O)c1cc(C(=O)NCc2ccc(S(=O)(=O)c3cccc(C(F)(F)F)c3)cn2)cc(C(F)(F)F)n1` [Compound 94, 2-(methylsulfonyl)-6-(trifluoromethyl)-N-((5-((3-(trifluoromethyl)phenyl)sulfonyl)pyridin-2-yl)methyl)isonicotinamide], the IC50 in test [1] (Table 4) stood at 1450 nM; in test [2] (Table 4) it was 820 nM; in test [3] (Table 4) it was 1630 nM.

Take `CC(C)S(=O)(=O)c1cc(C(F)(F)F)cnc1C(=O)NCc1ccc(S(=O)(=O)c2cccc(C(F)(F)F)c2)cn1` [Compound 96, 3-(isopropylsulfonyl)-5-(trifluoromethyl)-N-((5-((3-(trifluoromethyl)phenyl)sulfonyl)pyridin-2-yl)methyl)picolinamide]: the IC50 in test [1] (Table 4) worked out at 2140 nM; in test [2] (Table 4) it was 640 nM; in test [3] (Table 4), 1560 nM.

With `CS(=O)(=O)c1cc(C(F)(F)F)ccc1C(=O)NCc1ccc(S(=O)(=O)c2cccc(C(F)(F)F)c2)cn1` [Compound 99, 2-(methylsulfonyl)-4-(trifluoromethyl)-N-((5-((3-(trifluoromethyl)phenyl)sulfonyl)pyridin-2-yl)methyl)benzamide], the values for the IC50 in test [1] (Table 4), in test [2] (Table 4) and in test [3] (Table 4) were 1320 nM, 910 nM and 1270 nM, respectively.

For the molecule `O=C(NCc1ccc(S(=O)(=O)c2cccc(C(F)(F)F)c2)cn1)c1cn2cc(C(F)(F)F)ccc2n1` [Compound 103, 6-(trifluoromethyl)-N-((5-((3-(trifluoromethyl)phenyl)sulfonyl)pyridin-2-yl)methyl)imidazo[1,2-a]pyridine-2-carboxamide], the IC50 in test [1] (Table 4) stood at 1250 nM; in test [2] (Table 4) it was 830 nM; in test [3] (Table 4), 2060 nM.

In the case of `O=C(NCc1ccc(S(=O)(=O)c2cccc(C(F)(F)F)c2)cn1)c1ccc(F)c(Cl)c1` [Compound 104, 3-chloro-4-fluoro-N-((5-((3-(trifluoromethyl)phenyl)sulfonyl)pyridin-2-yl)methyl)benzamide], the results for the IC50 in test [1] (Table 4), in test [2] (Table 4) and in test [3] (Table 4) were 880 nM, 600 nM and 1540 nM, respectively.

`O=C(NCc1ccc(S(=O)(=O)c2cccc(C(F)(F)F)c2)cn1)[C@H]1C[C@@H](C2CCCCC2)CN1` [Compound 107, (2R,4S)-4-cyclohexyl-N-((5-((3-(trifluoromethyl)phenyl)sulfonyl)pyridin-2-yl)methyl)pyrrolidine-2-carboxamide]: the figures for the IC50 in test [1] (Table 4), in test [2] (Table 4) and in test [3] (Table 4) were 2090 nM, 450 nM and 6980 nM, respectively.

For the molecule `Cn1nc(C(F)(F)F)cc1C(=O)NCc1cc(S(=O)(=O)c2cccc(C(F)(F)F)c2)ccn1` [Compound 109, 1-methyl-3-(trifluoromethyl)-N-((4-((3-(trifluoromethyl)phenyl)sulfonyl)pyridin-2-yl)methyl)-1H-pyrazole-5-carboxamide], the IC50 was 3970 nM in test [1] (Table 4), 820 nM in test [2] (Table 4) and 6530 nM in test [3] (Table 4).

With `O=C(NCc1cc(S(=O)(=O)c2cccc(C(F)(F)F)c2)ccn1)[C@@H]1C[C@@H](C2CCCCC2)CN1` [Compound 118, (2S,4S)-4-cyclohexyl-N-((4-((3-(trifluoromethyl)phenyl)sulfonyl)pyridin-2-yl)methyl)pyrrolidine-2-carboxamide], the IC50 in test [1] (Table 4) amounted to 2400 nM; in test [2] (Table 4) it was 760 nM; in test [3] (Table 4) it was 4760 nM.

In the case of `CC(C)(C(=O)Nc1ccc(Oc2ccc(F)c(C(F)(F)F)c2)nc1)S(=O)(=O)c1cccc(OC(F)(F)F)c1` [Compound 119, N-(6-(4-fluoro-3-(trifluoromethyl)phenoxy)pyridin-3-yl)-2-methyl-2-((3-(trifluoromethoxy)phenyl)sulfonyl)propanamide], the IC50 came out at 4310 nM in test [1] (Table 5), 200 nM in test [2] (Table 5) and 5800 nM in test [3] (Table 5).

With `CC(C)(C(=O)Nc1ccc(Oc2ccc(F)c(Cl)c2)nc1)S(=O)(=O)c1cccc(OC(F)(F)F)c1` [Compound 121, N-(6-(3-chloro-4-fluorophenoxy)pyridin-3-yl)-2-methyl-2-((3-(trifluoromethoxy)phenyl)sulfonyl)propanamide], the IC50 in test [1] (Table 5) was 1150 nM; in test [2] (Table 5) it was 660 nM; in test [3] (Table 5), 4900 nM.

For `CC(C)(C(=O)Nc1ccc(Oc2ccc(C(F)(F)F)nc2)nc1)S(=O)(=O)c1cccc(OC(F)(F)F)c1` [Compound 122, 2-methyl-2-((3-(trifluoromethoxy)phenyl)sulfonyl)-N-(6-((6-(trifluoromethyl)pyridin-3-yl)oxy)pyridin-3-yl)propanamide], the IC50 was 1640 nM in test [1] (Table 5), 700 nM in test [2] (Table 5) and 4890 nM in test [3] (Table 5).

For `CC(C)(C(=O)Nc1ccc(Oc2ccc(C(F)(F)F)cn2)nc1)S(=O)(=O)c1cccc(OC(F)(F)F)c1` [Compound 123, 2-methyl-2-((3-(trifluoromethoxy)phenyl)sulfonyl)-N-(6-((5-(trifluoromethyl)pyridin-2-yl)oxy)pyridin-3-yl)propanamide], the IC50 in test [1] (Table 5) is 3010 nM; in test [2] (Table 5) it was 920 nM; in test [3] (Table 5), 4990 nM.

For the molecule `CC(C)(C(=O)NCc1cccc(C(F)(F)F)c1)S(=O)(=O)c1cccc(C(F)(F)F)c1` [Compound 124, 2-methyl-N-(3-(trifluoromethyl)benzyl)-2-((3-(trifluoromethyl)phenyl)sulfonyl)propanamide], the figures for the IC50 in test [1] (Table 5), in test [2] (Table 5) and in test [3] (Table 5) were 5620 nM, 750 nM and 4250 nM, respectively.

In the case of `CC(C)(C(=O)NCCc1c[nH]c2ccc(F)cc12)S(=O)(=O)c1cccc(C(F)(F)F)c1` [Compound 131, N-(2-(5-fluoro-1H-indol-3-yl)ethyl)-2-methyl-2-((3-(trifluoromethyl)phenyl)sulfonyl)propanamide], the IC50 in test [1] (Table 5) was 5210 nM; in test [2] (Table 5), 790 nM; in test [3] (Table 5), 6660 nM.

With `CC(C)(C(=O)N1CCN(c2cccc(C(F)(F)F)c2)CC1)S(=O)(=O)c1cccc(C(F)(F)F)c1` [Compound 132, 2-methyl-1-(4-(3-(trifluoromethyl)phenyl)piperazin-1-yl)-2-((3-(trifluoromethyl)phenyl)sulfonyl)propan-1-one], the IC50 in test [1] (Table 5) is 3630 nM; in test [2] (Table 5) it was 1210 nM; in test [3] (Table 5) it was 4080 nM.

Take `CC(C)(C(=O)N1CCC(c2cccc(Cl)c2)CC1)S(=O)(=O)c1cccc(C(F)(F)F)c1` [Compound 133, 1-(4-(3-chlorophenyl)piperidin-1-yl)-2-methyl-2-((3-(trifluoromethyl)phenyl)sulfonyl)propan-1-one]: the results for the IC50 in test [1] (Table 5), in test [2] (Table 5) and in test [3] (Table 5) were 4960 nM, 1160 nM and 2160 nM, respectively.
